Results published in patent publication US20160304957A1, “TREATMENT AND MODULATION OF GENE EXPRESSION AND SKIN AGING” (DSM NUTRITIONAL PRODUCTS LTD., priority 2006, published 2016).

Test system: HaCaT human keratinocytes
Test: Affymetrix GeneChip microarray, transcriptional response to β-carotene and/or UVA
Assay type: cell-based
Conditions: UVA and β-carotene 1.5 μM
Experimental: The cell culture experiments were carried out as described. Briefly, a subclone of passage 65 HaCaT keratinocytes, selected for differentiation capacity, was used at passages 16 to 23 after subcloning. 2×10^5 cells were seeded per 60 millimeter dish. Starting the following day, the cells were pretreated for 2 days with β-carotene at 1.5 μM, a typical concentration in human plasma after moderate dietary supplementation)
β-carotene-containing medium was prepared as follows. Fresh all-E-β-carotene (DSM Nutritional Products, Kaiseraugst, Switzerland) stock solution in THF (containing 0.025% BHT; Fluka Chemie A G, Switzerland) was diluted 1:2 with ethanol and added to cell culture medium to a final concentration of 1.5 μM β-carotene. The solvent concentration in the medium was 0.5% for all treatments. β-carotene-containing medium was prepared fresh for the daily medium changes.
On day 3 of the experiment, the cells were irradiated with a Hönle sun lamp Sol 500 (270 kJ/m^2; Dr. Hönle, Germany).
Five independent, factorially designed cell irradiation experiments were analyzed by microarray hybridization. For each experiment, one chip was hybridized per treatment condition. GeneChip® analysis was done as described in [132], which is incorporated by reference, as if recited in full herein. Gene regulation by β-carotene and/or UVA was calculated relative to placebo.
Changes in gene expression were included in further analysis only if the change factor was […], and if unpaired t-tests yielded p values≦0.05. Upregulations by a […] are labeled bold, downregulations by a change factor of […] are labeled bold italics. (Table 1) To identify the pathways affected by the treatments functional information on the genes was retrieved from public literature databases.

## CC1=C(/C=C/C(C)=C/C=C/C(C)=C/C=C/C=C(C)/C=C/C=C(C)/C=C/C2=C(C)CCCC2(C)C)C(C)(C)CCC1 [β-carotene, All-E-β-carotene]
  5-aminolevulinate synthase (Y00451) change factor: 0.41
  AAC11 (U83857) change factor: −0.05
  AP-2α (M36711) change factor: −0.67
  ATF4; activating transcription factor 4 (AL022312) change factor: 0.96
  BAXγ (L22475) change factor: −0.34
  BAXδ (U19599) change factor: 0.67
  BMP2a; bone morphogenetic protein 2a (bmp-2a) (M22489) change factor: 0.16
  BPAG1; bullous pemphigoid antigen (M69225) change factor: 0.12
  BUB1; mitotic checkpoint kinase (AF053305) change factor: −0.81
  C-FOS (V01512) change factor: 2.49
  C-FOS (V01512, second entry) change factor: 1.36
  C-JUN (J04111) change factor: 0.93
  C/EBPβ; NF-IL6 (X52560) change factor: 0.83
  C/EBPγ (U20240) change factor: 0.71
  C/EBPδ; NF-IL6-β (M83667) change factor: 0.31
  CDK activating kinase (X77743) change factor: 0.57
  CDK-inhibitor p57KIP2 (KIP2) mrna (U22398) change factor: 0.79
  CENP-A; centromere protein-A (U14518) change factor: −1.82
  CENP-E; centromere protein-E (Z15005) change factor: −1.44
  CENP-F; mitosin (U30872) change factor: −1.22
  CEP110; centriole associated protein (AF083322) change factor: −4.18
  CIP2; CDKN3 (L25876) change factor: −0.81
  CLARP; CFLAR, alternatively spliced (AF005775) change factor: −0.62
  COUP-TF II; ARP1; apoA1 regulatory protein (M64497) change factor: 0.81
  COX-2, cyclooxygenase-2 (U04636) change factor: 0.2
  CRADD; death domain containing protein (U84388) change factor: −0.87
  DKK-1; dickkopf-1 (AB020315) change factor: 1.4
  DNA ligase III (X84740) change factor: −0.71
  DNA polymerase α-subunit (X06745) change factor: −0.63
  DNA primase (subunit p58) (X74331) change factor: −0.41
  DNA-PK, catalytic subunit (U47077) change factor: −1.06
  DSC2; desmocollin type 2a and 2b (X56807) change factor: −0.29
  DUSP5 (U15932) change factor: 2.84
  DUSP7 (X93921) change factor: 0.99
  EGFR; precursor of epidermal growth factor receptor (X00588) change factor: −0.69
  ENDOGL-2 (AB020735) change factor: 0.41
  ERBB3 precursor; similar to (H06628) change factor: −0.78
  ERCC5; excision repair protein (L20046) change factor: −0.95
  ERF-2 (X78992) change factor: 0.99
  FGFR2; FGF receptor 2 (M87770) change factor: −0.48
  FGFR3; FGF receptor (M64347) change factor: −2.58
  FRA-1 (X16707) change factor: 0.71
  FRA-2 (X16706) change factor: −0.13
  GADD34 (U83981) change factor: 2.62
  GADD153 (S62138) change factor: 7.64
  GDF-1; growth/differentiation factor 1 (gdf-1) (M62302) change factor: −0.43
  GEM (U10550) change factor: 3.91
  HB-EGF; heparin-binding egf-like growth factor (M60278) change factor: 3.32
  HER3; epidermal growth factor receptor (her3) (M34309) change factor: −1.12
  HER3; epidermal growth factor receptor (her3) (M34309, second entry) change factor: −1.56
  HM74; PAR1-related (D10923) change factor: −0.55
  HOXA7 (AJj005814) change factor: −0.52
  HOXC6 (S82986) change factor: −0.82
  HOXD4 (X59373) change factor: −0.76
  ID1 (X77956) change factor: −2.43
  ID1 (X77956, second entry) change factor: −4.7
  ID3; HEIR1 (AL021154) change factor: −4.35
  ID-2H (D13891) change factor: −2.68
  ID-4 (AL022726) change factor: −0.49
  IEX-1 (S81914) change factor: 0.91
  IFIT1; IFI56 (M24594) change factor: −0.61
  IFIT1; IFI56 (M24594, second entry) change factor: −0.71
  IFIT2; ISG-54K (M14660) change factor: 1.17
  IFIT2; ISG-54K (M14660, second entry) change factor: 0.58
  IFIT4; IFI60; cig5; RIGG (AF026941) change factor: 5.46
  IGF-BP 3; insulin-like growth factor-binding protein-3 gene (M35878) change factor: 1.64
  IGF-BP 3; insulin-like growth factor-binding protein-3 gene (M35878, second entry) change factor: 1.73
  IL6; Interleukin 6; IFNβα2a (X04430) change factor: 2.29
  IL18; IGIF (IFNγ inducing factor) (D49950) change factor: −0.18
  ILK; integrin-linked kinase (U40282) change factor: −0.51
  IRF-1; interferon regulatory factor 1 (L05072) change factor: 0.29
  IRF-7b; interferon regulatory factor 7b (U53831) change factor: 0.49
  IRF-9; p48; ISGF3γ (M97935) change factor: −0.67
  JUNB (M29039) change factor: −0.72
  JUNB (X51345) change factor: −0.7
  JUND (X56681) change factor: 3.2
  JUND (X56681, second entry) change factor: 1.83
  JUND (X56681, third entry) change factor: 1.66
  K-RAS (M54968) change factor: −0.64
  KINESIN-LIKE 2; HSET (AL021366) change factor: −0.72
  KINESIN-LIKE 2; HSET (D14678) change factor: −0.72
  KINESIN-LIKE 2; HSET (D14678, second entry) change factor: −1.15
  KINESIN-LIKE 5; KNSL5; MKLP-1; mitotic kinesin-like protein-1 (X67155) change factor: −1.04
  KINESIN-LIKE 6; KNSL6; MCAK; mitotic centromere-associated kinesin (U63743) change factor: −1.61
  KINESIN_LIKE 1; KNSL1; HKSP; EG5 (U37426) change factor: −0.92
  KLF4; EZF (epithelial Zn finger) (U70663) change factor: 3.46
  KRS-2; stress responsive serine/threonine protein kinase (U60207) change factor: −0.35
  KU (p70/p80) (M30938) change factor: −0.64
  LIM kinase 2 (limk-2) (D45906) change factor: −0.66
  Lekti (AJ228139) change factor: 0.75
  MAD3L; mitotic checkpoint kinase (AF053306) change factor: −2.45
  MAF-F (AL021977) change factor: 1.71
  MAP kinase phosphatase (mkp-2) (U48807) change factor: 1.12
  MAPK9; JNK2 (U09759) change factor: −0.57
  MAPK14; p38; csaids binding protein (csbp1) (L35263) change factor: −0.53
  MAPKK3b; MKK3b (D87116) change factor: 0.62
  MAPKK MEK5b (U71087) change factor: −0.7
  MAPKKK5; ASK1 (U67156) change factor: −4.7
  MEIS2 (AF017418) change factor: −1.3
  MMP10 (X07820) change factor: 2.2
  MMP-1 (M13509) change factor: −0.22
  MMP-3 (X05232) change factor: 0.93
  N-RAS (X02751) change factor: −0.01
